ChEMBL document CHEMBL3217743, “Reduction of acyl glucuronidation in a series of acidic 11-hydroxysteroid dehydrogenase type 1 (11-HSD1) inhibitors: the discovery of AZD6925” (Medchemcomm, 2012)
Active and inactive are the calls of the source. The rule behind the calls is not given here.

Legend:
[1] = Apparent permeability from apical to basolateral side in MDCK cells at 10 uM; assay type: ADME, cell-based, Canis lupus familiaris; conditions: dog
[2] = Inhibition of N-terminal 6-His-tagged cynomolgus monkey full length 11beta-HSD1 assessed as conversion of cortisone to cortisol after 25 mins by HTRF assay; parameters: species or system Macaca fascicularis
[3] = biological target: 11-beta-hydroxysteroid dehydrogenase 1 (Homo sapiens, UniProt P28845); test: Inhibition of 11beta-HSD1 in human adipocytes assessed as conversion of [3H]-cortisone to [3H]-cortisol by scintillation counting analysis; assay type: cell-based
[4] = biological target: T1, 17-beta-hydroxysteroid dehydrogenase type 3 (Homo sapiens, UniProt P37058); test: Inhibition of recombinant 17beta-HSD3 (unknown origin) assessed as conversion of androstenedione to testosterone after 90 mins by scintillation counting analysis
T1 sequence (P37058 whole entry): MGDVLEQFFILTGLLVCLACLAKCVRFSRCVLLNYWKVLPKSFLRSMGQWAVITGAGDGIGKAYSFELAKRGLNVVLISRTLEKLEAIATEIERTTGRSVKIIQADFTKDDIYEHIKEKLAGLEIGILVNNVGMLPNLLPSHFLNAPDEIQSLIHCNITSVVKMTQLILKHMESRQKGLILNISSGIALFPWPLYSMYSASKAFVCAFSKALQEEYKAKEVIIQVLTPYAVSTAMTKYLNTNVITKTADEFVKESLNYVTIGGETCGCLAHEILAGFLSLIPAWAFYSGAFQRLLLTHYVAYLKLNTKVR

[5] = Half life in dog at 1 to 3 mg/kg, iv; assay type: ADME, organism-based, Canis lupus familiaris; parameters: dose 1-3 mg/kg, route intravenous; conditions: in vivo
[6] = Half life in dog at 1 to 3 mg/kg, po; assay type: ADME, organism-based, Canis lupus familiaris; parameters: dose 1-3 mg/kg, route oral; conditions: in vivo
[7] = Half life in mouse at 1 to 3 mg/kg, iv; assay type: ADME, organism-based; parameters: dose 1-3 mg/kg, route intravenous; conditions: in vivo
[8] = biological target: T2, CYP1A2 (Homo sapiens, UniProt P05177); test: Inhibition of CYP1A2 (unknown origin) at 10 uM relative to control; assay type: ADME
T2 sequence (P05177 whole entry): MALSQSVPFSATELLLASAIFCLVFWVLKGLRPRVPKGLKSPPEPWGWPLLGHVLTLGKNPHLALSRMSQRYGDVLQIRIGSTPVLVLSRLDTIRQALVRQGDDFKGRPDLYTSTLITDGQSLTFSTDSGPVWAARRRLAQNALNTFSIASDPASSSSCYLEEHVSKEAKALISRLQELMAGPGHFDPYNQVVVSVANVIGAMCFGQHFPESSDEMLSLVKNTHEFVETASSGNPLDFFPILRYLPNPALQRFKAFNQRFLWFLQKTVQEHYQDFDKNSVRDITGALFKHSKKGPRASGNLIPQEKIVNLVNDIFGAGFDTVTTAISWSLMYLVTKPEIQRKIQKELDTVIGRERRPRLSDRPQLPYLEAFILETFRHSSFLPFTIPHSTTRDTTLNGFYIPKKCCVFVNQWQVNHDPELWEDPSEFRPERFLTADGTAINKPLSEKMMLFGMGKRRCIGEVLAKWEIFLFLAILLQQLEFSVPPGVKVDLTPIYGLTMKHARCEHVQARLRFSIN

[9] = Clearance in rat; assay type: ADME, organism-based; conditions: in vivo
[10] = Drug metabolism in rat hepatocytes assessed as compound remaining by LC-MS/MS analysis; assay type: ADME, cell-based, Hepatocyte
[11] = biological target: T3, Glucocorticoid receptor (Homo sapiens) (UniProt P04150); test: Activity at glucocorticoid receptor (unknown origin)
T3 sequence (whole entry): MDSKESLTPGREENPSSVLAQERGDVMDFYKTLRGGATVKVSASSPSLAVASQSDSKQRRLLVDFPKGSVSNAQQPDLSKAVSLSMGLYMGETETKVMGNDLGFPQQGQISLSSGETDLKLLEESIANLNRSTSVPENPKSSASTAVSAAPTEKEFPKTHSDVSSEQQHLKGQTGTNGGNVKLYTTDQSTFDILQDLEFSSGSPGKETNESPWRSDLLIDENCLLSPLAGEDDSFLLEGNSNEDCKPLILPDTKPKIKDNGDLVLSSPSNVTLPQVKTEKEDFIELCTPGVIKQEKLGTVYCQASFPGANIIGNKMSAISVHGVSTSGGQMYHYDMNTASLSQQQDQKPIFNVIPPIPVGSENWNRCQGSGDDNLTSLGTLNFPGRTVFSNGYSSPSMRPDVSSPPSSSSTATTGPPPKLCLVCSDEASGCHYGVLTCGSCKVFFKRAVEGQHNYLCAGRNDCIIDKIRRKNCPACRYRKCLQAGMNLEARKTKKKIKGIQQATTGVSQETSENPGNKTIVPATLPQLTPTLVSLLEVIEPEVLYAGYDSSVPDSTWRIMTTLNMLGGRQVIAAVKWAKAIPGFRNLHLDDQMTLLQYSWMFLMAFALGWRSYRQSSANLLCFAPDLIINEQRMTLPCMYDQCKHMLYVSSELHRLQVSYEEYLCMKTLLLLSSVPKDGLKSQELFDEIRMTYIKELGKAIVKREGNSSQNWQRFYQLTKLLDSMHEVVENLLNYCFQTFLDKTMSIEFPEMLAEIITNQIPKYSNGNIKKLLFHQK

[12] = biological target: T4, Mineralocorticoid receptor (Homo sapiens) (UniProt P08235); test: Activity at mineralocorticoid receptor (unknown origin)
T4 sequence (whole entry): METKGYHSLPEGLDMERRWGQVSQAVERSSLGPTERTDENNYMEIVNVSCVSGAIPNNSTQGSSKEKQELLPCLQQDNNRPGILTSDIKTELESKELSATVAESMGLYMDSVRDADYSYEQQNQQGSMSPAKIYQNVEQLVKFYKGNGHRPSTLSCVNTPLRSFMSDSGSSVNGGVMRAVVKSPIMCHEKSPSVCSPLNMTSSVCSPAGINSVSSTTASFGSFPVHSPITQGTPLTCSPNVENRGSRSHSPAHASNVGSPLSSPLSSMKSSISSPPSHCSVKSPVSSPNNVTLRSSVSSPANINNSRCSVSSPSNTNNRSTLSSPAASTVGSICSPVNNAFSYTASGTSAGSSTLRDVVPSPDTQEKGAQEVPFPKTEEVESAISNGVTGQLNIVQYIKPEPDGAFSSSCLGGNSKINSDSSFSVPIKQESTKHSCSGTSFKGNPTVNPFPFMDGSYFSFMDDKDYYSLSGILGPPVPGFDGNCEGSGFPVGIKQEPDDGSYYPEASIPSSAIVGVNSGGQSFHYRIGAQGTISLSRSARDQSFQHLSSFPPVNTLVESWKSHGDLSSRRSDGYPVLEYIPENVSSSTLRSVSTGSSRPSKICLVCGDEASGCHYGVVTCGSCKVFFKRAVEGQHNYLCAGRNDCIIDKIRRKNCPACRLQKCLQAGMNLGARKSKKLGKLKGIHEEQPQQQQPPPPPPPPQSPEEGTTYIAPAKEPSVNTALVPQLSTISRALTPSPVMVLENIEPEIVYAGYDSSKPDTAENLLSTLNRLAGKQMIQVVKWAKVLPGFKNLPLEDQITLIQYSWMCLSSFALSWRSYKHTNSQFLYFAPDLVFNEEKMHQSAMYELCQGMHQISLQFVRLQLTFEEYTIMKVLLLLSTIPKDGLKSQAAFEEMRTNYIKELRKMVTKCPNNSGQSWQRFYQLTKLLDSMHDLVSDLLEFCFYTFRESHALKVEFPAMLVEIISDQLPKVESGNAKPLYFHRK

11-beta-hydroxysteroid dehydrogenase 1, sequence (P28845 whole entry): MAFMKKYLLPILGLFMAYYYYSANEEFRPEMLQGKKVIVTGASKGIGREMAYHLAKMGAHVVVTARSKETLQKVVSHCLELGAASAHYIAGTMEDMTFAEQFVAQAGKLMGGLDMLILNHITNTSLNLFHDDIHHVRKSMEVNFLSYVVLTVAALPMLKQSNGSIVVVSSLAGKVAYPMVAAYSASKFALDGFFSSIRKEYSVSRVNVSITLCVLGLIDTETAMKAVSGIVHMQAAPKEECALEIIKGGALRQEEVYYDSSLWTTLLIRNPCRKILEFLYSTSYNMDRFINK

Papp A→B at 10 µM [1]: 21 ×10⁻⁶ cm/s | IC50 [2]: 20 nM | IC50 [3]: 4 nM | IC50 [4]: 25000 nM | half-life [5]: 15 h | half-life [6]: 27 h | half-life [7]: 2.5 h | inhibition at 10 µM [8]: < 25% | clearance [9]: 6 mL/min/kg | Stability [10]: 82% | Activity [11]: inactive | Activity [12]: inactive
SMILES: CSc1nc(N2C[C@@H]3[C@H](C2)[C@H]3C(=O)O)ccc1C(=O)NC12CC3CC(CC(C3)C1)C2
